The record followed here is ChEMBL document CHEMBL1201862, “PubChem BioAssay data set” (2004).

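Exposure lasted 48 hours, with cells grown in 96-well plates and compounds tested at five concentrations. Abbreviation: GI50, concentration required for 50% inhibition of growth.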 Calls of active or inactive are those of the source. Cut-off read from the data, not from the text of the source: active = GI50 up to about 1.1 µM and inactive = higher.

What all share (assay): NCI-60 cell line screen, 48 h
In experiment [1] the test system is UACC-257.
Experiment [2] has as its system IGROV-1.
For experiment [3], the system named is OVCAR-3.
The test system of experiment [4] is OVCAR-8.
Experiment [5] has as its system SW-620.
Experiment [6] deals with CCRF-CEM.
The subject of experiment [7] is NCI-H226.
The test system of experiment [8] is TK-10.
The test system of experiment [9] is SNB-19.
The test system of experiment [10] is OVCAR-4.
Experiment [11] has as its system NCI-H522.
Experiment [12] has as its system HT-29.
For experiment [13], the system named is BT-549.
For experiment [14], the system named is ACHN.
Experiment [15] relates to K562.
Experiment [16] relates to HCT-15.
Experiment [17] has as its system PC-3.
Experiment [18] relates to RXF 393.
Experiment [19] has as its system SF-539.
In experiment [20] the test system is SNB-75.

Consider `Cc1cc(C)n2nc3nc(N)c(C#N)c(-c4ccccc4)c3c2n1`, for which the GI50 in experiment [1] was > 100 µM (inactive); in [2] it was > 100 µM (inactive); in [3], > 73.6 µM (inactive); in experiment [4], > 100 µM (inactive); in experiment [5], > 100 µM (inactive); in experiment [6], > 100 µM (inactive). The GI50 is > 78.5 µM (inactive) in experiment [7]; > 100 µM (inactive) in experiment [8]; > 100 µM (inactive) in experiment [9]; > 100 µM (inactive) in experiment [10]; > 100 µM (inactive) in experiment [11]; > 100 µM (inactive) in experiment [12]. In addition, the GI50 in experiment [13] is > 100 µM (inactive); in experiment [14] it was > 100 µM (inactive); in experiment [15], > 100 µM (inactive); in experiment [16], greater than 100 µM; in experiment [17] it was > 100 µM (inactive); in experiment [18], > 100 µM (inactive). Further, in experiment [19], the GI50 was > 100 µM (inactive).
Take `COc1ccc(C(OCC2OC(n3ccc(Oc4c(F)c(F)c(F)c(F)c4F)nc3=O)CC2OP(OCCC#N)N(C(C)C)C(C)C)(c2ccccc2)c2ccc(OC)cc2)cc1` (configuration not stated): the GI50 in experiment [1] is > 100 µM (inactive); in experiment [2], > 100 µM (inactive); in [3] it was > 100 µM (inactive); in experiment [4] it was > 100 µM (inactive); in experiment [5], > 100 µM (inactive); in [6], 77.3 µM (inactive). For the same molecule, the GI50 in experiment [7], in experiment [8], in experiment [9], in experiment [11], in experiment [12] and in experiment [13] was > 100 µM (inactive) each time. Moreover, the GI50 in experiment [14] is > 100 µM (inactive); in experiment [15], > 100 µM (inactive); in [16], greater than 100 µM; in experiment [20], > 100 µM (inactive); in experiment [17], > 100 µM (inactive); in experiment [18], > 100 µM (inactive). In addition, the GI50 in experiment [19] is > 100 µM (inactive).
Turning to `Cc1cc2c(cc1C)[n+]([O-])c(C(F)(F)F)c(C(=O)c1ccccc1)[n+]2[O-]`, the GI50 was 3.02 µM (inactive) in [1]; 1.37 µM (inactive) in experiment [2]; 0.227 µM (active) in [3]; 2.93 µM (inactive) in [4]; 3.72 µM (inactive) in [5]; 2.02 µM (inactive) in [6]. In addition, the GI50 was 3.3 µM (inactive) in experiment [8]; 3.56 µM (inactive) in experiment [9]; 2.99 µM (inactive) in [11]; 1.71 µM (inactive) in experiment [12]; 5.35 µM (inactive) in experiment [13]; 2.39 µM (inactive) in experiment [14]. The GI50 is 2.27 µM (inactive) in experiment [15]; 3.24 µM in [16]; 3.32 µM (inactive) in experiment [20]; 2.09 µM (inactive) in [17]; 3.13 µM (inactive) in experiment [18]; 5.07 µM (inactive) in experiment [19].
`CC(C)=NNc1cnnc2ccc([N+](=O)[O-])cc12`: the GI50 in experiment [1] was > 100 µM (inactive); in experiment [2] it was 21.4 µM (inactive); in experiment [4], > 100 µM (inactive); in experiment [5], > 100 µM (inactive); in [6], 32.9 µM (inactive); in experiment [7], > 100 µM (inactive). Further, the GI50 is > 100 µM (inactive) in experiment [9]; 15.5 µM (inactive) in experiment [11]; > 100 µM (inactive) in experiment [12]; > 100 µM (inactive) in experiment [13]; 23.9 µM (inactive) in experiment [14]; 57.5 µM in [16]. The GI50 in [20] was 58.9 µM (inactive); in [17], > 100 µM (inactive); in [18], > 100 µM (inactive); in experiment [19] it was > 100 µM (inactive).
